In patent publication US20240358707A1, “INHIBITORS OF BRUTON'S TYROSINE KINASE” (Pharmacyclics LLC, priority 2006, published 2024):

Tests used:
Btk = Btk (Homo sapiens (Human), UniProt Q06187); assay: Btk acellular kinase assay (TR-FRET); type: biochemical; settings: relative to compound 4
[1] = tested on: BCR-activated calcium flux in Ramos cells; assay: BCR-induced calcium flux assay in Ramos cells; settings: Homo sapiens, read-out: Ramos Cell Ca Flux IC50
DHL-6 cells = assay: DHL-6 cell growth (Alamar Blue assay); type: cell-based

Chain of Btk (Q06187 whole entry): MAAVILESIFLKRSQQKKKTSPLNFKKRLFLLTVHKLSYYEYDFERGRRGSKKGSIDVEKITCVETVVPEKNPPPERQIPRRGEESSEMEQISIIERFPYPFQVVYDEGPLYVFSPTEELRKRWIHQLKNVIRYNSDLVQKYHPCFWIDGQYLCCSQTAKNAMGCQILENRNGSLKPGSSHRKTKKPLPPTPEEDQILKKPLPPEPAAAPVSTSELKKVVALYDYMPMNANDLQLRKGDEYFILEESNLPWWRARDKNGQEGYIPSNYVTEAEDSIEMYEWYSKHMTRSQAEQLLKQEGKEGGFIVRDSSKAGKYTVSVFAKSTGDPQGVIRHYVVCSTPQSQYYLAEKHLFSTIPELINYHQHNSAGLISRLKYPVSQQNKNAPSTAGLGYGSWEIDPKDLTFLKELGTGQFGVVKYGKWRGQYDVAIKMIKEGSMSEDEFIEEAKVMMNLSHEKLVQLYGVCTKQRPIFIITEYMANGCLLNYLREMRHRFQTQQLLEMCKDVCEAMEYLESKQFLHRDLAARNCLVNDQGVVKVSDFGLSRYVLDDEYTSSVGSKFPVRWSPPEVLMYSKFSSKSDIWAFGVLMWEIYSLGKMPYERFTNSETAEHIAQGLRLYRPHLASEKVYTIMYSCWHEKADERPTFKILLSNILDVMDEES

SMILES	IC50 [1] [µM]	also measured
C/C=C/C(=O)N1CCCC(n2nc(-c3ccc(Oc4ccccc4)cc3)c3c(N)ncnc32)C1 (stereo not drawn) [Compound 5, (E)-1-(3-(4-amino-3-(4-phenoxyphenyl)-1H-pyrazolo[3,4-d]pyrimidin-1-yl)piperidin-1-yl)but-2-en-1-one]	0.089	Fold less potent than compound 4 (Btk) (Btk): 28 fold
C=CS(=O)(=O)N1CCCC(n2nc(-c3ccc(Oc4ccccc4)cc3)c3c(N)ncnc32)C1 (stereo not drawn) [Compound 6, 1-(3-(4-amino-3-(4-phenoxyphenyl)-1H-pyrazolo[3,4-d]pyrimidin-1-yl)piperidin-1-yl)sulfonylethene]	0.092	
C=CC(=O)N1CCC(n2nc(-c3ccc(Oc4ccccc4)cc3)c3c(N)ncnc32)CC1 [Compound 9, 1-(4-(4-amino-3-(4-phenoxyphenyl)-1H-pyrazolo[3,4-d]pyrimidin-1-yl)piperidin-1-yl)prop-2-en-1-one]	0.048	
C=CC(=O)N1CC[C@H](n2nc(-c3ccc(Oc4ccccc4)cc3)c3c(N)ncnc32)C1 [Compound 12, 1-((S)-3-(4-amino-3-(4-phenoxyphenyl)-1H-pyrazolo[3,4-d]pyrimidin-1-yl)pyrrolidin-1-yl)prop-2-en-1-one]	0.09	

Stronger by IC50 [1], values ahead:

IC50 [1] [µM]	SMILES	also measured
0.009	Nc1ncnc2c1c(-c1ccc(Oc3ccccc3)cc1)nn2C1CCCN(C(=O)CCl)C1 (stereo not drawn) [Compound 7]	
0.009	C#CC(=O)N1CCCC(n2nc(-c3ccc(Oc4ccccc4)cc3)c3c(N)ncnc32)C1 (stereo not drawn) [Compound 8, 1-(3-(4-amino-3-(4-phenoxyphenyl)-1H-pyrazolo[3,4-d]pyrimidin-1-yl)piperidin-1-yl)prop-2-yn-1-one]	
0.003	C=CC(=O)N[C@H]1CC[C@@H](n2nc(-c3ccc(Oc4ccccc4)cc3)c3c(N)ncnc32)CC1 [Compound 10, N-((1s,4s)-4-(4-amino-3-(4-phenoxyphenyl)-1H-pyrazolo[3,4-d]pyrimidin-1-yl)cyclohexyl)acrylamide]	
0.024	C=CC(=O)N1CC[C@@H](n2nc(-c3ccc(Oc4ccccc4)cc3)c3c(N)ncnc32)C1 [Compound 11, 1-((R)-3-(4-amino-3-(4-phenoxyphenyl)-1H-pyrazolo[3,4-d]pyrimidin-1-yl)pyrrolidin-1-yl)prop-2-en-1-one]	
0.036	CN(C)C/C=C/C(=O)N1CCC[C@@H](n2nc(-c3ccc(Oc4ccccc4)cc3)c3c(N)ncnc32)C1 [Compound 15, (E)-1-(3-(4-amino-3-(4-phenoxyphenyl)-1H-pyrazolo[3,4-d]pyrimidin-1-yl)piperidin-1-yl)-4-(dimethylamino)but-2-en-1-one]	Growth of DHL-6 cells (DHL-6 cells; 24 h treatment): inhibits growth; Growth of DHL-6 cells (DHL-6 cells; 48 h treatment): inhibits growth
